# Assay results taken from patent publication US20180055816A1, “PYRANONAPHTHOQUINONE COMPOUNDS AND METHODS OF USE THEREOF” (University of Kentucky Research Foundation, priority 2016, published 2018).
# “Also recorded” adds a separate entry of the source.
# Key:
# 4E-BP1 phosphorylation [1] = assay: Inhibition of 4E-BP1 phosphorylation in HCT116 cells (Western blot); assay type: cell-based, human; settings: for inhibition of 4E-BP1 phosphorylation: 12 h
# Protocol: (§1) Compounds that pass this single dose filter are then tested in a CRC (HCT116) in vitro cytotoxicity assay and, in parallel, an in vitro assay to assess propensity for intracellular reactive oxygen species (ROS) production using the redox sensitive probe CeIIROX® Deep Red reagent (Invitrogen) by flow cytometry analysis (47).
# (§2) Cells were lysed in NP-40 lysis buffer (50 mM Tris-HCl, pH 7.5, 150 mM NaCl, 1 mM EDTA, 1% NP-40, 10% glycerol, protease and phosphatase inhibitor cocktail). Western blot analysis were performed using equivalent total protein loadings as described previously. For immunoprecipitation, the cell lysates were incubated with the indicated antibody overnight followed by incubation with a 50% slurry of protein G sepharose beads for 3 h at 4° C. The beads were washed three times with the lysis buffer, and the immunoprecipitated protein complexes were resuspended in 2× Laemmli sample buffer followed by western blot analysis.
# [2] = test system: intracellular reactive oxygen species (ROS); assay: Intracellular ROS production, CellROX Deep Red flow cytometry, HCT116 cells; assay type: cell-based, human
# Protocol: as §1
# The ROS production was determined using the CellROX Deep Red Flow Cytometry Assay Kit according to the manufacturer's protocol (Life Technologies). Briefly, cells were treated with 2 μM of the indicated compounds or DMSO as control for 1 h. After treatment, cells were incubated with 0.5 μM of CellROX Deep Red reagent for 1 h at 37° C., washed twice with PBS and immediately analyzed by a FACScan flow cytometer. For the measurement of cellular H2O2 level, cells were treated with 2 μM of the indicated compounds for 5 h.
# HCT116 cells [3] = assay: Cell growth / cytotoxicity in HCT116 cells; assay type: cell-based, human; settings: Homo sapiens, HCT-116; colorectal cancer cell line HCT116
# Protocol: as §1
# (§3) Cell growth was assessed as described previously. Briefly, 5×10^4 cells were seeded in 6-well plates in triplicates. After 24 h, cells were treated with the indicated compounds and incubated at 37° C. The cells were cultured for 3 days and the number of viable cells was counted using the Vi-CELL XR 2.03 (Beckman Coulter, Brea, Calif.). For apoptosis, cells were analyzed by flow cytometry using the Annexin V-FITC Apoptosis Detection Kit according to the manufacturer's protocol (BD Biosciences, San Jose, Calif.).
# [4] = test system: cap-dependent translation; assay: Cap-dependent translation bicistronic luciferase reporter assay in HCT116 cells; assay type: cell-based, human; settings: 12 h
# HCT116 cells [5] = assay: Apoptosis assay (propidium iodide/Annexin V flow cytometry) in HCT116 cells; assay type: cell-based, human; settings: HCT116, 72 hours
# Protocol: (A) HCT116 cells were treated with different concentrations of FB and 12 for 12 hours. Cell lysates were precipitated with m^7GTP sepharose beads followed by Western blot analysis for the indicated proteins. (B) Inhibition of cap-dependent translation activity in HCT116 cells that were treated with the indicated compounds or DMSO as control for 12 hours was determined and analyzed as in FIG. 10A. (C) and (D) HCT116 cells were treated with different concentrations of FB and 12 for 72 hours. Apoptotic cells were analyzed by propidium iodide/Annexin V staining and flow cytometry (C). The results are expressed as the increased levels of apoptosis (D) by subtracting each of the DMSO-treated controls. All graphic data are presented as mean±s.e.m. (n=3 technical replicates per condition). *P<0.001 for 12 versus FB. Statistical significance was determined by the Student's t-test.
# as §3
# Prx1 = molecular target: T1, Prx1 (Homo sapiens, UniProt Q06830); assay: Prx1 catalytic activity inhibition; assay type: biochemical; settings: recombinant Prx1, 1 hour incubation
# T1 sequence (Q06830 1-199): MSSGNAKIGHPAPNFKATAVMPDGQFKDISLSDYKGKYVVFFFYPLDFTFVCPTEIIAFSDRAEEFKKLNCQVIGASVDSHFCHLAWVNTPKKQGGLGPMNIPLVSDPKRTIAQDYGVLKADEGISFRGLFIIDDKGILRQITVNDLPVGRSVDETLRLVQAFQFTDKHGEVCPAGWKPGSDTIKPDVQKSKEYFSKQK
# Protocol: The recombinant Prx1 protein was incubated with the indicated concentration of FB, 12, or conoidin A for 1 hour. Data are presented as mean±s.e.m. (n=3 technical replicates per condition). […]. Statistical significance was determined by the Student's t-test.
# Prx1 and Grx3 are antioxidant enzymes known to regulate oxidative stress. Prx1 catalyzes peroxide reduction of H2O2, whereas Grx3 functions as glutathione (GSH)-dependent oxidoreductase by participating in the conversion of reduced GSH to oxidized glutathione disulfide (GSSG). […] While Grx3 biochemical assays are lacking, FB and active analogs could lead to a decrease in GSH levels and an increase in GSSG levels in HCT116 cells (FIGS. 23A-B). As antioxidant enzymes utilize cysteine-containing active sites to reduce various cellular peroxide or disulfide substrates, the role of Prx1/Grx3 cysteines in FB ligand-binding was assessed through replacing their cysteines to alanines. […] Finally, mass spectrometry analysis confirmed the covalent modification of Prx1 and Grx3 by FB at these specific target sites. These cumulative studies provide strong validation of Prx1 and Grx3 as the predominate molecular targets of PNQs in cancer cells.
# AKT phosphorylation = AKT phosphorylation in HCT116 cells (Western blot); assay type: cell-based, human; settings: HCT116, 12 h; 2 μM FB or UCF76-A, 0.5 μM AZD8055, 1 μM MK2206
# Protocol: (§4) HCT116 cells were treated with 1 μM MK2206 and 100 nM PD0325901 alone and in combination, 100 nM rapamycin, 0.5 μM AZD8055, 2 μM UCF76-A or 2 μM FB for 12 h followed by Western blot analysis for the indicated proteins.
# as §2
# S6 phosphorylation = S6 phosphorylation in HCT116 cells (Western blot); assay type: cell-based, human; settings: HCT116, 12 h; 2 μM FB or UCF76-A, 100 nM rapamycin, 0.5 μM AZD8055
# Protocol: as §4, §2
# p70S6K phosphorylation = p70S6K phosphorylation in HCT116 cells (Western blot); assay type: cell-based, human; settings: HCT116, 12 h; 2 μM FB or UCF76-A, 100 nM rapamycin, 0.5 μM AZD8055
# Protocol: as §4, §2
# 4E-BP1 phosphorylation [6] = assay: Western blot of xenograft tumor extracts; assay type: in vivo, mice; settings: HCT116 or DLD-1 xenograft tumors, 6 h after the final treatment, 14 mg/kg
# Protocol: FIGS. 34A-B. FB induces ROS production to repress 4E-BP1 phosphorylation and tumor growth in vivo. (A) Western blot analysis of representative tumors collected from mice in FIG. 32 6 h after the final treatment with 14 or vehicle control. (B) A proposed model for the anticancer mechanism of FB through targeting Prx1/Grx3 to induce ROS accumulation leading to inhibition of mTORC1/4E-BP1-mediated tarnaltion.
# (§5) Male athymic nude mice (5-6 weeks old) were purchased from Taconic (Hudson, N.Y., USA). Experiments were carried out under a protocol approved by the University of Kentucky Institutional Animal Care and Use Committee. HCT116 and DLD-1 xenograft tumors were established by subcutaneously injecting 3×10^6 cells in a 1:1 mixture of media and Matrigel (BD Biosciences) into the right flank. For efficacy studies, mice were randomized among control and treated groups (n=8 per group) when tumors were well-established (˜120 mm^3). Compound 14 was prepared freshly in saline and administered by intraperitoneal injection at 14 mg/kg once per day, Mon-Fri per week. Control mice received saline solution. Tumor dimensions were measured using a caliper and tumor volumes were calculated as mm^3=π/6× larger diameter×(smaller diameter)^2. Tumors were excised and snap frozen in liquid nitrogen, homogenized in 2% SDS lysis buffer and then processed for Western blot analysis as described previously^5.
# HCT116 xenograft tumors = assay: HCT116 colon cancer xenograft in nude mice; assay type: in vivo; settings: 14 mg/kg intraperitoneal, daily five days a week, 2 weeks
# Protocol: as §5
# [7] = Tolerability in tumor-bearing nude mice (body weight, maximum tolerated dose); assay type: in vivo
# Protocol: Mice bearing HCT116 or DLD-1 CRC xenograft tumors were treated with compound 14 at 14 mg/kg or with vehicle control once per day for 5 consecutive days each week. The mouse body weight was measured twice per week in control and treated groups using a weighing scale. The results represent the mean body weight±s.e.m. (n=8 mice/group). *P>0.05 for 14 versus vehicle control in HCT116 or DLD-1 xenograft tumors. Statistical significance was determined by the Student's t-test.
# as §5, with “Tumors were excised and snap frozen in liquid nitrogen, homogenized in 2% SDS lysis buffer and then processed for Western blot analysis as described previously^5.” left out
# DLD-1 xenograft tumors = assay: DLD-1 colon cancer xenograft in nude mice; assay type: in vivo; settings: 14 mg/kg intraperitoneal, daily five days a week, 2 weeks
# Protocol: as §5
structure (smiles),measurement,setting,value
"C[C@@H]1CC(=O)[C@@H](O)[C@]2(O1)O[C@@H]1CC(=O)O[C@@H]1C1=C2C(=O)c2c(O)cccc2C1=O [GC, griseusen C]",inhibition of 4E-BP1 phosphorylation,4E-BP1 phosphorylation [1],notable inhibition
same,ROS production compared with b47,[2],slightly lower
same,IC50,HCT116 cells [3],127 nM
"O=C1C[C@H]2O[C@@H](CCC(F)(F)F)C3=C(C(=O)c4c(Cl)ccc(O)c4C3=O)[C@H]2O1 [Compound 12, (3aR,5S,11bR)-10-Chloro-7-hydroxy-5-(3,3,3-trifluoropropyl)-3,3a,5,11b-tetrahydro-2H-benzo[g]furo[3,2-c]isochromene-2,6,11-trione]",inhibition of cap-dependent translation,[4],more potent that FB
same,fold more potent than FB as an inhibitor of 4E-BP1 phosphorylation,4E-BP1 phosphorylation [1]; relative to FB,up to 4 fold
same,induction of apoptosis compared with FB,HCT116 cells [5],more potent that FB
same,inhibition of Prx1 catalytic activity,Prx1,potently inhibit
COc1ccc(-c2ccc3c(N4CCOC[C@@H]4C)nc(N4CCOC[C@@H]4C)nc3n2)cc1CO [AZD8055],inhibition of AKT phosphorylation,AKT phosphorylation,inhibited
same,inhibition of S6 phosphorylation,S6 phosphorylation,potently inhibited
same,inhibition of p70S6K phosphorylation,p70S6K phosphorylation,potently inhibited
NC1(c2ccc(-c3nc4ccn5c(=O)[nH]nc5c4cc3-c3ccccc3)cc2)CCC1 [MK2206],inhibition of AKT phosphorylation,AKT phosphorylation,effective inhibition
same,inhibition of 4E-BP1 phosphorylation,4E-BP1 phosphorylation [1],negligible modulation
"O=C1C[C@H]2O[C@@H](CCC(F)(F)F)C3=C(C(=O)c4c(Cl)ccc(OP(=O)(O)O)c4C3=O)[C@H]2O1 [Compound 14, (3aR,5S,11bR)-10-Chloro-2,6,11-trioxo-5-(3,3,3-trifluoropropyl)-3,3a,5,6,11,11b-hexahydro-2H-benzo[g]furo[3,2-c]isochromen-7-yl dihydrogen phosphate]",4E-BP1 phosphorylation in tumor extracts,4E-BP1 phosphorylation [6],inhibition of 4E-BP1 phosphorylation
same,tumor reduction,HCT116 xenograft tumors,64%
same,body weight loss,"[7]; 14 mg/kg once per day, 5 days each week, HCT116 or DLD-1 xenograft mice",without significant weight loss; also recorded: does not cause significant weight loss
same,MTD,"[7]; male, athymic nude, mouse, in vivo, intraperitoneal, 14 mg/kg, nude mice",14 mg/kg
same,tumor reduction,DLD-1 xenograft tumors,56%
same,aqueous solubility,Aqueous solubility,aqueous soluble
